# “And” between values parts separate entries of the source, which are not always exact repeats. Identical values can stand only once.
# How the values were obtained:
# Type in all cases: in vivo, human
# [1] = Phase 2a: pharmacokinetics in plasma (LC/MS-MS)
# Experimental: Blood was collected to evaluate to pharmacokinetics (PK) of Cotadutide in plasma. The PK was measured using a validated liquid chromatography-tandem mass spectrometry (LC/MS-MS) method.
# Pharmacokinetic characterization of Cotadutide at 300 μg was obtained using full PK profiles collected during the last day of dosing at 300 μg (Day 32). Additional Ctrough concentrations were collected through the study duration to check exposure.
# [2] = system: patients with T2DM and chronic kidney disease (CKD) stage G3; test: Phase 2a: C-peptide levels; conditions: over 32 days; P<0.001
# Experimental: Over 32 days, 21 patients received once-daily subcutaneous cotadutide (n=21) titrated up to 300 μg, and 20 patients received placebo (PBO). […] Serious adverse events (AEs) were balanced between treatment arms; treatment-related AEs were more frequent with cotadutide (71%) vs PBO (35%). The most common AEs were nausea (cotadutide, 33%; PBO, 20%) and vomiting (cotadutide, 24%; PBO, 5%). […] Thus, in patients with T2DM and chronic kidney disease, cotadutide improved overall glycemic control and glucose responses to an MMTT with acceptable tolerability. Improvements in albuminuria indicate that cotadutide can slow long-term progression of CKD.
# [3] = Phase 2a: body weight; conditions: for Weight, Absolute Change From Day 1, Difference in LS Mean Change (vs Placebo) / Weight, Absolute Change From Day 1, LS Mean Change / Weight, Percent Change from Day 1, Difference in LS Mean Change (vs Placebo) / Weight, Percent Change from Day 1, LS Mean Change: ANCOVA; for Weight, Absolute Change From Day 1, Difference in LS Mean Change (vs Placebo) / Weight, Absolute Change From Day 1, LS Mean Change / Weight, Percent Change from Day 1, Difference in LS Mean Change (vs Placebo) / Weight, Percent Change from Day 1, LS Mean Change / Weight, Absolute Change From Day 1, Mean / Weight, Absolute Change From Day 1, Median / Weight, Percent Change from Day 1, Mean / Weight, Percent Change from Day 1, Median / Weight, End of Dosing (Day 33), Mean / Weight, End of Dosing (Day 33), Median: ITT
# Experimental: Cotadutide was titrated from 50 μg up to 300 μg and administered once daily by subcutaneous (SC) injection over 32 days.
# Cotadutide was administered at 50 μg once daily for 4 days, followed by 100 μg daily for 7 days, 200 μg daily for 7 days, and 300 μg daily for 14 days (n=20). Placebo was administered one daily for 32 days (n=20). Cotadutide and placebo were administered in the morning. Dosing commenced following predose baseline vital signs, blood tests (including HbA1c), an electrocardiogram (ECG), body weight measurement, and bioimpedance spectroscopy (BIS). Subjects then returned for daily dosing or remained overnight locally until Day 5, and thereafter, had visits at weekly intervals until a maintenance dose of 300 μg was established. Thus, Cotadutide or placebo was administered at the study site by study personal for the first four doses and on site on Days 5, 12, 19, and 32. At all other times, subjects preformed dosing at home.
# Weight was measured after the subject had toileted and removed bulky clothing, including shoes. Whenever possible, the same calibrated scale was used for each measurement for any given subject.
# [4] = system: subjects with T2DM and renal impairment; test: Phase 2a: bioimpedance spectroscopy (fluid status); conditions: baseline (Day 1) to end of dosing
# Experimental: Assessment of body composition, including but not limited to extracellular and intracellular volume and total body water, were conducted with bioimpedance spectroscopy using the SFB7 device produced by ImpediMed. Bioimpedance spectroscopy measures were not conducted in any subject with a pacemaker or implantable electronic device, e.g., an implantable cardiac defibrillator, as described in the manufacturer's instructions.
# Bioimpedance spectroscopy was performed prior to dosing on Visit 4 (Day 1; Baseline) and following dosing on Visits 6 (Day 5), 7 (Day 12), 8 (Day 19), and 9 (Day 32). Subjects were to void their bladder and abstain from exercising 2 hours prior to the assessment. The subjects laid in a supine position 5 minutes before the measurement, while not touching any metal surfaces. The subjects' limbs were not crossed, the legs were completely separated, and the arms were not to touch the torso. For subjects who could not effectively separate their inner thighs, insulating material (e.g., a towel) may have been between the legs. The bioimpedance spectroscopy was set to make three repeat measurements. The subject was to remain still and relaxed during the measurement. The points of contact for the electrodes were marked on the subject's skin and the same positions used at all occasions. […]
# [5] = system: subjects with T2DM and renal impairment; test: Phase 2a: total daily insulin dose adjustment
# Experimental: The effect of Cotadutide on insulin dose adjustment was evaluated for subjects on ≥20 U/day insulin. […] The mean percent reduction in total daily insulin dose from baseline until the end of dosing was statistically significant compared to placebo, especially in the HbA1c<8.0% subgroup (Table 15).
# [6] = Day 1 to Day 33, Insulin Dose < 20 U/day subgroup
# [7] = Day 1 to Day 33, Insulin Dose ≥ 20 U/day subgroup
# [8] = Insulin Dose < 20 U/day subgroup
# [9] = Insulin Dose ≥ 20 U/day subgroup
structure (smiles),measurement,setting,value
CCCCCCCCCCCCCCCC(=O)N[C@@H](CCC(=O)NCCCC[C@H](NC(=O)[C@H](CC(=O)O)NC(=O)[C@H](CO)NC(=O)[C@@H](NC(=O)[C@H](Cc1ccccc1)NC(=O)[C@@H](NC(=O)CNC(=O)[C@H](CCC(N)=O)NC(=O)[C@H](CO)NC(=O)[C@@H](N)Cc1c[nH]cn1)[C@@H](C)O)[C@@H](C)O)C(=O)N[C@@H](CO)C(=O)N[C@@H](CCC(=O)O)C(=O)N[C@@H](Cc1ccc(O)cc1)C(=O)N[C@@H](CC(C)C)C(=O)N[C@@H](CC(=O)O)C(=O)N[C@@H](CO)C(=O)N[C@@H](CCC(=O)O)C(=O)N[C@@H](CCCNC(=N)N)C(=O)N[C@@H](C)C(=O)N[C@@H](CCCNC(=N)N)C(=O)N[C@@H](CC(=O)O)C(=O)N[C@@H](Cc1ccccc1)C(=O)N[C@H](C(=O)N[C@@H](C)C(=O)N[C@@H](Cc1c[nH]c2ccccc12)C(=O)N[C@@H](CC(C)C)C(=O)N[C@@H](CCC(=O)O)C(=O)N[C@@H](C)C(=O)NCC(=O)NCC(=O)O)C(C)C)C(=O)O [Cotadutide],AUC,"[1]; human, plasma, 300 ug, Day 32, 300 μg SC, geometric mean, N = 16",286 ng·h/mL
same,Cmax,"[1]; human, plasma, 300 ug, Day 32, 300 μg SC, geometric mean, N = 18",16.9 ng/mL
same,Tmax,"[1]; human, plasma, 300 ug, Day 32, 300 μg SC, median, N = 18",5.6 h
same,PK linearity for Ctrough,[1]; repeat daily SC doses 50 to 300 μg,linear PK
same,"C-peptide levels, LS mean change vs PBO",[2],0.88 µg/L
same,"weight loss, percentage",[3]; <20 U/day Insulin group,−5.38%
same,"Weight, Absolute Change From Day 1, Difference in LS Mean Change (vs Placebo)",[3]; [6],-3.99 kg
same,"Weight, Absolute Change From Day 1, LS Mean Change",[3]; [6],-4.72 kg
same,"Weight, Percent Change from Day 1, Difference in LS Mean Change (vs Placebo)",[3]; [6],−4.74%
same,"Weight, Percent Change from Day 1, LS Mean Change",[3]; [6],−5.38%
same,"Weight, Absolute Change From Day 1, Mean",[3]; [6],-4.74 kg
same,"Weight, Absolute Change From Day 1, Median",[3]; [6],-4.50 kg
same,"Weight, Percent Change from Day 1, Mean",[3]; [6],−5.26%
same,"Weight, Percent Change from Day 1, Median",[3]; [6],−4.53%
same,"Weight, Absolute Change From Day 1, Difference in LS Mean Change (vs Placebo)",[3]; [7],-2.79 kg
same,"Weight, Absolute Change From Day 1, LS Mean Change",[3]; [7],-2.66 kg
same,"Weight, Percent Change from Day 1, Difference in LS Mean Change (vs Placebo)",[3]; [7],−2.66%
same,"Weight, Percent Change from Day 1, LS Mean Change",[3]; [7],−2.69%
same,"Weight, Absolute Change From Day 1, Mean",[3]; [7],-2.60 kg
same,"Weight, Absolute Change From Day 1, Median",[3]; [7],-1.90 kg
same,"Weight, Percent Change from Day 1, Mean",[3]; [7],−2.61%
same,"Weight, Percent Change from Day 1, Median",[3]; [7],−2.00%
same,"Weight, Absolute Change From Day 1, Difference in LS Mean Change (vs Placebo)","[3]; Day 1 to Day 33, Total",-3.28 kg
same,"Weight, Absolute Change From Day 1, LS Mean Change","[3]; Day 1 to Day 33, Total",-3.41 kg
same,"Weight, Percent Change from Day 1, Difference in LS Mean Change (vs Placebo)","[3]; Day 1 to Day 33, Total",−3.47%
same,"Weight, Percent Change from Day 1, LS Mean Change","[3]; Day 1 to Day 33, Total",−3.69%
same,"Weight, Absolute Change From Day 1, Mean","[3]; Day 1 to Day 33, Total",-3.39 kg
same,"Weight, Absolute Change From Day 1, Median","[3]; Day 1 to Day 33, Total",-3.60 kg
same,"Weight, Percent Change from Day 1, Mean","[3]; Day 1 to Day 33, Total",−3.59%
same,"Weight, Percent Change from Day 1, Median","[3]; Day 1 to Day 33, Total",−3.68%
same,LS mean reduction in absolute body weight,"[3]; Day 1 to Day 33, all subjects",-3.41 kg
same,LS mean reduction in percentage body weight,"[3]; Day 1 to Day 33, all subjects",−3.69% and −3.7%
same,"Weight, End of Dosing (Day 33), Mean",[3]; [8],91.27 kg
same,"Weight, End of Dosing (Day 33), Median",[3]; [8],88.70 kg
same,"Weight, End of Dosing (Day 33), Mean",[3]; [9],94.13 kg
same,"Weight, End of Dosing (Day 33), Median",[3]; [9],96.15 kg
same,"Weight, End of Dosing (Day 33), Mean",[3]; Total,93.08 kg
same,"Weight, End of Dosing (Day 33), Median",[3]; Total,94.10 kg
same,"weight loss, percentage",[3]; ≥20 U/day Insulin group,−2.69%
same,"changes in total body water volume, intracellular fluid volume, or extracellular fluid volume vs placebo",[4],no clinically meaningful differences
same,reduction in insulin dose,"[5]; over 32 days, P=0.012",35.2%
same,percentage reduction from baseline in total daily insulin dose at the end of treatment,"[5]; participants with insulin dose of at least 20 U/day, Day −2 to end of treatment",−35.2%

# From US20210213104A1, “GLUCAGON AND GLP-1 CO-AGONISTS FOR THE TREATMENT OF CHRONIC KIDNEY DISEASE AND DIABETIC KIDNEY DISEASE IN TYPE 2 DIABETES” (MEDIMMUNE LIMITED, priority 2020, published 2021)
